ChEMBL document CHEMBL5154907, “Discovery and Anti-Inflammatory Activity Evaluation of a Novel CDK8 Inhibitor through Upregulation of IL-10 for the Treatment of Inflammatory Bowel Disease In Vivo” (J Med Chem, 2022)
Active and inactive are the calls of the source. The rule behind the calls is not given here.

Legend:
BMDC [1] = test: Anti-inflammatory activity against R848-stimulated mouse BMDC cells assessed as upregulation of IL-10 production at 5 uM treated for 24 hrs followed by R848 stimulation for 12 hrs by ELISA method (reference value: 100 %); assay type: functional; settings: time 36 hrs
CDK8/Cyclin C = CDK8/Cyclin C (Homo sapiens, UniProt P49336); test: Inhibition of recombinant full length His tagged human CDK8/Cyclin C expressed in Baculovirus incubated for 60 mins in presence of ATP by ADP-Glo kinase assay
Chain of CDK8/Cyclin C (P49336 whole entry): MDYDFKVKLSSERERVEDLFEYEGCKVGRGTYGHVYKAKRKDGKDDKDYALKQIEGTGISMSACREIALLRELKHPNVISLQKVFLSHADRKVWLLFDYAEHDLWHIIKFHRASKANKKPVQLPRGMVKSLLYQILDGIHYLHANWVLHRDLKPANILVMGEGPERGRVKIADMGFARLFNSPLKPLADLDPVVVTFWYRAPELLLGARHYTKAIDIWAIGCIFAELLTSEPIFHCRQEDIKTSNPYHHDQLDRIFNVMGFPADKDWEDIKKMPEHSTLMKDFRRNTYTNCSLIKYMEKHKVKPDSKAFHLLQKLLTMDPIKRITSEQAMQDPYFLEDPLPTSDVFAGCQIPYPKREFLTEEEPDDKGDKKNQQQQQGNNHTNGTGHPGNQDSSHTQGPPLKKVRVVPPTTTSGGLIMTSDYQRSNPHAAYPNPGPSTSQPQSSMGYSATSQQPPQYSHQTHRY
Chain of CDK8/Cyclin C (P24863 whole entry, further chain): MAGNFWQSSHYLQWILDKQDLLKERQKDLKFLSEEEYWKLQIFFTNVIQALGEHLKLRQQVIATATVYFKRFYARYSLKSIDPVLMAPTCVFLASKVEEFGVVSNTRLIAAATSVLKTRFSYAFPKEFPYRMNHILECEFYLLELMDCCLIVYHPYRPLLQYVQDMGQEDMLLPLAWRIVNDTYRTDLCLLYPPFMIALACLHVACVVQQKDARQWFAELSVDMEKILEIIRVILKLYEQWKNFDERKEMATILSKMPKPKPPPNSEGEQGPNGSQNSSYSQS

[2] = target: Cyclin-dependent kinase 8 (Homo sapiens) (UniProt P49336); test: Binding affinity to CDK8 in human HCT-116 cells assessed as thermal stability at 49 degC treated for 4 hrs followed by compound washout by CETSA assay; assay type: cell-based; settings: dose 0.5-10 µM, DDE = dose-dependent effect
Chain of Cyclin-dependent kinase 8 (Homo sapiens) (P49336 whole entry): as the sequence (P49336 whole entry) above

[3] = target: Cyclin-dependent kinase 8 (Homo sapiens) (UniProt P49336); test: Binding affinity to CDK8 in human HCT-116 cells assessed as reduction in protease-induced CDK8 degradation at 1 to 4 uM treated for 6 hrs followed by protease treatment for 30 mins by western blot analysis; assay type: cell-based; settings: dose 1-4 µM, time 390.0 min, DDE = dose-dependent effect
BMDC [4] = test: Anti-inflammatory activity against R848 stimulated-mouse BMDC cells assessed as downregulation of IL-6 production by ELISA method; assay type: functional, cell-based
[5] = target: T1, Cyclin-dependent kinase 8 (Mus musculus) (UniProt Q8R3L8); test: Inhibition of CDK8 in IFN-gamma-stimulated mouse BMDC cells assessed as STAT-1 phosphorylation at Ser727 at 1 to 4 uM treated for 2 hrs followed by IFN-gamma stimulation for 12 hrs by western blot analysis; assay type: cell-based; settings: dose 1-4 µM, time 14.0 hrs
T1 sequence (whole entry): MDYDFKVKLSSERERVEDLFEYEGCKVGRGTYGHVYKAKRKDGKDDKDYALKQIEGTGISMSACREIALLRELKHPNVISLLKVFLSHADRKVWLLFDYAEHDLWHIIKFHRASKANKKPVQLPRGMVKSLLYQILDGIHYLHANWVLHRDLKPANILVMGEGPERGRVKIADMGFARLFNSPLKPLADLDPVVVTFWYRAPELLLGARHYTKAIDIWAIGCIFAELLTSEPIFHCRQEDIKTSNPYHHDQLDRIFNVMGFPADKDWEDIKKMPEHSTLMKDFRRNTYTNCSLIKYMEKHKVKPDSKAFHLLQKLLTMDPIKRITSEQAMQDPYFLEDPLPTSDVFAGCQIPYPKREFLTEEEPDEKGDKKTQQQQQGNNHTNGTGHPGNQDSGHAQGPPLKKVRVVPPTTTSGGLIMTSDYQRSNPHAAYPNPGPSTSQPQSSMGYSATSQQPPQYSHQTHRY

[6] = target: c-Jun N-terminal kinase (Mus musculus) (UniProt Q91Y86+Q9WTU6+Q61831); test: Inhibition of JNK phosphorylation in R848-stimulated mouse BMDC cells at 1 to 4 uM treated for 2 hrs followed by R848 stimulation for 12 hrs by western blot analysis; assay type: cell-based; settings: dose 1-4 µM, time 14.0 hrs
Chain of c-Jun N-terminal kinase (Mus musculus) (Q61831 whole entry, looked up): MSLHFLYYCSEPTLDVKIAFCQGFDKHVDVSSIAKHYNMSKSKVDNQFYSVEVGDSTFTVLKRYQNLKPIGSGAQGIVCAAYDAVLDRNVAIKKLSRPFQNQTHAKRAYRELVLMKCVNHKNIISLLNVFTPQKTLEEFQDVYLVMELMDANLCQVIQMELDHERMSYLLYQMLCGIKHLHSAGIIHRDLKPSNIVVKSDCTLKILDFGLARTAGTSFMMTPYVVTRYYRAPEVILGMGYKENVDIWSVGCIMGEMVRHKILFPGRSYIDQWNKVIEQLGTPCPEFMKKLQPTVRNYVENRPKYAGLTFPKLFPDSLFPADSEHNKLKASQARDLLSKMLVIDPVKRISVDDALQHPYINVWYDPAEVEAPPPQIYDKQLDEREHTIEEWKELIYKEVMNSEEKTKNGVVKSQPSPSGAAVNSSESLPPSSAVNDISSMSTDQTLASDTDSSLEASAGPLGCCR
Chain of c-Jun N-terminal kinase (Mus musculus) (Q91Y86 whole entry, looked up): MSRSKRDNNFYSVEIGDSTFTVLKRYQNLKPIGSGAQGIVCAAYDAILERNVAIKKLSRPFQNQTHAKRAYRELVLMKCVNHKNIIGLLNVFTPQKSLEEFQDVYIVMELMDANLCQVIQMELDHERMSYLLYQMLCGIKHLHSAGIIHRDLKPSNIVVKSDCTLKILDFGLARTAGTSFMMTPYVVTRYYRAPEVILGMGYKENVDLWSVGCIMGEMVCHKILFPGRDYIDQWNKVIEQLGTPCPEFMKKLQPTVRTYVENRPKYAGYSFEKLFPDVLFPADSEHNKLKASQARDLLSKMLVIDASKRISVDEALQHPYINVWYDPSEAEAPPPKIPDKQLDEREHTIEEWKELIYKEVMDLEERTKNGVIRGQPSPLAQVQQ
Chain of c-Jun N-terminal kinase (Mus musculus) (Q9WTU6 whole entry, looked up): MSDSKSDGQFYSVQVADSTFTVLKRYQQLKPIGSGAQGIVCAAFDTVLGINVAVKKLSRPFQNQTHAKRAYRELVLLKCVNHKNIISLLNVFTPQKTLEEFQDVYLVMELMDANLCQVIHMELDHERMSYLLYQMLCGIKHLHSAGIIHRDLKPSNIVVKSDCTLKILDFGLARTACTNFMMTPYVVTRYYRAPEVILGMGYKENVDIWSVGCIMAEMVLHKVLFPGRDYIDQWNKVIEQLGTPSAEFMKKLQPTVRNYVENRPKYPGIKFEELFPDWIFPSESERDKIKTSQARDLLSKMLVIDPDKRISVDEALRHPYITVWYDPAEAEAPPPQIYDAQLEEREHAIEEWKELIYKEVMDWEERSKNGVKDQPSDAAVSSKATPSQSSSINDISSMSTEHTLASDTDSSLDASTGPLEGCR

[7] = Acute toxicity in 12 hr fasted ICR mouse assessed as body weight loss at 2000 mg/kg, po measured daily for 7 days; assay type: organism-based; settings: in vivo, 168 h, time 7 day
[8] = Acute toxicity in 12 hr fasted ICR mouse assessed as effect on spleen at 2000 mg/kg, po measured after 7 days by hematoxylin and eosin staining based histopathological analysis; assay type: organism-based; settings: in vivo, 168 h, time 7 day
[9] = Acute toxicity in 12 hr fasted ICR mouse assessed as effect on kidney at 2000 mg/kg, po measured after 7 days by hematoxylin and eosin staining based histopathological analysis; assay type: organism-based; settings: in vivo, 168 h, time 7 day
[10] = Stability in human liver microsomes; assay type: ADME, Microsome
[11] = Half life in Sprague-Dawley rat at 10 mg/kg, po measured for 3 to 1440 mins by HPLC analysis; assay type: ADME, organism-based; settings: in vivo, time 3-1440 min
[12] = Tmax in Sprague-Dawley rat at 10 mg/kg, po measured for 3 to 1440 mins by HPLC analysis; assay type: ADME, organism-based; settings: in vivo, time 3-1440 min
[13] = AUC (0 to infinity) in Sprague-Dawley rat at 10 mg/kg, po measured for 3 to 1440 mins by HPLC analysis; assay type: ADME, organism-based; settings: in vivo
[14] = Bioavailability in Sprague-Dawley rat at 10 mg/kg, po measured for 3 to 1440 mins by HPLC analysis; assay type: ADME, organism-based; settings: in vivo, time 3-1440 min
Mus musculus [15] = test: Anti-inflammatory activity in C57BL/6 mouse model of inflammatory bowel disease assessed as decrease in DSS-induced neutrophil infiltration in colon tissue by measuring MPO activity at 5 to 20 mg/kg, po administered for 10 days; assay type: functional, organism-based; settings: dose 5-20 mg/kg, time 10.0 day, DDE = dose-dependent effect
Mus musculus [16] = test: Anti-inflammatory activity in C57BL/6 mouse model of inflammatory bowel disease assessed as reduction in DSS-induced epithelium destruction in colon tissue at 5 to 20 mg/kg, po daily measured after 10 days by hematoxylin and eosin staining based histopathological analysis; assay type: functional, organism-based; settings: dose 5-20 mg/kg, time 10.0 day
Mus musculus [17] = test: Anti-inflammatory activity in C57BL/6 mouse model of inflammatory bowel disease assessed as reduction in number of DSS-induced inflammatory cells in colon tissue at 5 to 20 mg/kg, po daily measured after 10 days by hematoxylin and eosin staining based histopathological analysis; assay type: functional, organism-based; settings: dose 5-20 mg/kg, time 10.0 day
Mus musculus [18] = test: Anti-inflammatory activity in C57BL/6 mouse model of inflammatory bowel disease assessed as increase in DSS-induced IL-10 levels in serum administered orally daily measured after 10 days by ELISA method; assay type: functional, organism-based; settings: dose 5-20 mg/kg, route po, time 10.0 day, DDE = dose-dependent effect
Mus musculus [19] = test: Anti-inflammatory activity in C57BL/6 mouse model of inflammatory bowel disease assessed as decrease in DSS-induced IL-6 levels in colon tissue at 5 to 20 mg/kg, po daily measured after 10 days by ELISA method; assay type: functional, organism-based; settings: dose 5-20 mg/kg, time 10.0 day
Mus musculus [20] = test: Anti-inflammatory activity in C57BL/6 mouse model of inflammatory bowel disease assessed as reversal of DSS-induced TLR7 expression in colon tissue at 5 to 20 mg/kg, po measured after 10 days by western blot analysis; assay type: functional, organism-based; settings: dose 5-20 mg/kg, time 10.0 day
Mus musculus [21] = test: Anti-inflammatory activity in C57BL/6 mouse model of inflammatory bowel disease assessed as reversal of DSS-induced MyD88 expression in colon tissue at 5 to 20 mg/kg, po measured after 10 days by western blot analysis; assay type: functional, organism-based; settings: dose 5-20 mg/kg, time 10.0 day
Mus musculus [22] = test: Anti-inflammatory activity in C57BL/6 mouse model of inflammatory bowel disease assessed as suppression of DSS-induced NF-kappa-B p65 expression in colon tissue at 5 to 20 mg/kg, po measured after 10 days by western blot analysis; assay type: functional, organism-based; settings: dose 5-20 mg/kg, time 10.0 day
Mus musculus [23] = test: Anti-inflammatory activity in DSS-induced C57BL/6 mouse model of inflammatory bowel disease assessed as increase in JAK1 phosphorylation in colon tissue at 5 to 20 mg/kg, po measured after 10 days by western blot analysis; assay type: functional, organism-based; settings: dose 5-20 mg/kg, time 10.0 day
[24] = target: CDK8/Cyclin C (Homo sapiens) (UniProt P49336+P24863); test: Inhibition of recombinant full length His tagged human CDK8/Cyclin C expressed in Baculovirus at 200 nM incubated for 60 mins in presence of ATP by ADP-Glo kinase assay

CCc1ccccc1NC(=O)c1cncc(-c2ccc(C(=O)N3CCNCC3)cc2)c1
Activity (BMDC [1]): 88% | IC50 (CDK8/Cyclin C): 56 nM | Activity [2]: Dde | Activity [3]: Dde | Activity (BMDC [4]): Active | inhibition [5]: Active | inhibition [6]: Active | Activity [7]: Non-Toxic | Activity [8]: Non-Toxic | Activity [9]: Non-Toxic | Stability [10]: Stable | half-life [11]: 131 min | Tmax [12]: 43.8 min | AUC(0-inf) [13]: 520 ng·h/mL | bioavailability [14]: 29.3% | Activity (Mus musculus [15]): Dde | Activity (Mus musculus [16]): Active | Activity (Mus musculus [17]): Active | Activity (Mus musculus [18]): Dde | Activity (Mus musculus [19]): Active | Activity (Mus musculus [20]): Active | Activity (Mus musculus [21]): Active | Activity (Mus musculus [22]): Active | Activity (Mus musculus [23]): Active | inhibition [24]: 85%
